In experiment [1] the test system is wild-type E. coli A-1261. The experiment can be described thus: MIC against wild-type E. coli A-1261 with or without alkaline phosphatase or esterase. The class given is cell-based. The following applies: Escherichia coli. Here is the method: Minimal Inhibitory Concentrations (MICs; mg/L) were determined in cation-adjusted Mueller-Hinton Broth by a microdilution method following the description given in “Methods for Dilution Antimicrobial Susceptibility Tests for Bacteria that Grow Aerobically”, Approved standard, 7th ed., Clinical and Laboratory Standards Institute (CLSI) Document M7-A7, Wayne, Pa., USA (2006).
The compounds of Examples 62 and 63 were tested against wild-type E. coli A-1261 in the absence of alkaline phosphatase or esterase, in the presence of an alkaline phosphatase and in the presence of an esterase. The corresponding antibacterial test results are given in Table 2 hereafter (MICs in mg/L).

Experiment [2] concerns K. pneumoniae A-651. The experiment can be described thus: Bacterial growth minimal inhibitory concentration (broth microdilution, CLSI M7-A7). The experiment is classed as cell-based, Klebsiella pneumoniae. The following applies: for MIC: Klebsiella pneumoniae. In outline:
(§1)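 Broth microdilution in cation-adjusted Mueller-Hinton Broth per CLSI M7-A7; MICs reported in mg/L. K. pneumoniae A-651 and A. baumannii T6474 are multiply resistant, quinolone-resistant strains; E. coli ATCC25922 and P. aeruginosa ATCC27853 are quinolone-sensitive.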
(In general: In broth dilution the organism is exposed to a series of concentrations in liquid medium.)

The test system of experiment [3] is E. coli ATCC25922. The experiment is described as above. The class given is cell-based, Escherichia coli. The following applies: for MIC: Escherichia coli. In outline:
as §1

In experiment [4] the test system is P. aeruginosa ATCC27853. Described as above. The following applies: for MIC: Pseudomonas aeruginosa. The class given is cell-based, Pseudomonas aeruginosa. In outline: as §1
The subject of experiment [5] is Acinetobacter baumannii T6474. Described as above. The experiment is classed as cell-based. The following applies: for MIC: Acinetobacter baumannii. The method, boiled down:
as §1

Setting [6] is: alkaline phosphatase 2 i.U./mL, read-out: MIC for E. coli A-1261 In the presence of an alkaline phosphatase (2 i.U./mL).
[7] abbreviates: esterase 10 i.U./mL, read-out: MIC for E. coli A-1261 In the presence of an esterase (10 i.U./mL).
[8] abbreviates: no alkaline phosphatase or esterase, read-out: MIC for E. coli A-1261 In the absence of alkaline phosphatase or esterase.
Where [9] appears, read: A651, cation-adjusted Mueller-Hinton Broth, microdilution, multiply-resistant (quinolone-resistant) strain, read-out: MIC for K. Pneumoniae A-651.
The mark [10] stands for this setting: ATCC25922, cation-adjusted Mueller-Hinton Broth, microdilution, quinolone-sensitive strain, read-out: MIC for E. coli ATCC25922.
Where [11] appears, read: ATCC27853, cation-adjusted Mueller-Hinton Broth, microdilution, quinolone-sensitive strain, read-out: MIC for P. aeruginosa ATCC27853.
Setting [12] is: T6474, cation-adjusted Mueller-Hinton Broth, microdilution, multiply-resistant (quinolone-resistant) strain, read-out: MIC for A. Baumannii T6474.
The mark [13] stands for this setting: cation-adjusted Mueller-Hinton Broth, microdilution, multiply-resistant (quinolone-resistant) strain.
The mark [14] stands for this setting: cation-adjusted Mueller-Hinton Broth, microdilution, quinolone-sensitive strain.

≈ marks a conversion by molar mass, not a printed value. Counter-ions that a name gives are not always drawn. Like-named read-outs stand apart in the source and are kept apart here.

For `CN(C)CC(=O)OCC1(c2ccc(C#Cc3ccc4nn(CC[C@](C)(C(=O)NO)S(C)(=O)=O)cc4c3)cc2)CC1.Cl` [Example 63, (R)-(1-(4-((2-(4-(hydroxyamino)-3-methyl-3-(methylsulfonyl)-4-oxobutyl)-2H-indazol-5-yl)ethynyl)phenyl)cyclopropyl)methyl dimethylglycinate hydrochloride], the MIC in experiment [1] (setting [6]) amounted to 0.5 µg/mL; in experiment [1] (setting [7]) it was 0.063 µg/mL; in experiment [1] (setting [8]), 0.25 µg/mL; in experiment [2] (setting [9]) it was 4 µg/mL; in experiment [3] (setting [10]), 2 µg/mL; in experiment [4] (setting [11]), 8 µg/mL. Further, in experiment [5] (setting [12]), the MIC was determined as 8 µg/mL.

Take `C[C@@](CCn1cc2cc(C#CC#CC3(N)COC3)ccc2n1)(C(=O)NO)S(C)(=O)=O` [Example 48, (R)-4-(5-((3-aminooxetan-3-yl)buta-1,3-diyn-1-yl)-2H-indazol-2-yl)-N-hydroxy-2-methyl-2-(methylsulfonyl)butanamide formate]: the MIC in experiment [2] (A651, read-out: MIC for K. Pneumoniae A-651) is 4 µg/mL; in experiment [3] (ATCC25922, read-out: MIC for E. coli ATCC25922), 2 µg/mL; in experiment [4] (ATCC27853, read-out: MIC for P. aeruginosa ATCC27853), 2 µg/mL; in experiment [5] (T6474, read-out: MIC for A. Baumannii T6474) it was above 32 µg/mL.

Regarding `C[C@H](O)c1ccc(C#Cc2ccc3nn(CC[C@](C)(C(=O)NO)S(C)(=O)=O)cc3c2)cc1` [Example 34], the “MIC for K. Pneumoniae A-651” value in experiment [2] (setting [13]) was determined as 0.125 µg/mL. Moreover, the “MIC for E. coli ATCC25922” value in experiment [3] (setting [14]) was 0.063 µg/mL. The “MIC for P. aeruginosa ATCC27853” value in experiment [4] (setting [14]) is 0.5 µg/mL. For the same compound, the “MIC for A. Baumannii T6474” value in experiment [5] (setting [13]) came out at 1 µg/mL.

For `C[C@@](CCn1cc2cc(C#CC#CC3(O)COC3)ccc2n1)(C(=O)NO)S(C)(=O)=O` [Example 28, (R)—N-hydroxy-4-(5-((3-hydroxyoxetan-3-yl)buta-1,3-diyn-1-yl)-2H-indazol-2-yl)-2-methyl-2-(methylsulfonyl)butanamide], the MIC in experiment [2] (setting [9]) is 0.5 µg/mL (≈ 1.16 µM); in experiment [3] (setting [10]) it was 0.5 µg/mL (≈ 1.16 µM); in experiment [4] (setting [11]), 1 µg/mL (≈ 2.32 µM); in experiment [5] (setting [12]) it was above 32 µg/mL.

In the case of `C[C@@](CCn1cc2cc(C#CC#C[C@@H]3CC[C@H](N)CO3)ccc2n1)(C(=O)NO)S(C)(=O)=O` (relative stereo) [Example 61, (R)-4-(5-(((2S*,5S*)-5-aminotetrahydro-2H-pyran-2-yl)buta-1,3-diyn-1-yl)-2H-indazol-2-yl)-N-hydroxy-2-methyl-2-(methylsulfonyl)butanamide], the MIC is 4 µg/mL (≈ 8.72 µM) in experiment [2] (setting [9]), 2 µg/mL (≈ 4.36 µM) in experiment [3] (setting [10]), 1 µg/mL (≈ 2.18 µM) in experiment [4] (setting [11]) and above 8 µg/mL in experiment [5] (setting [12]).

For `C[C@@](CCn1cc2cc(C#Cc3ccc(C4(COP(=O)(O)O)CC4)cc3)ccc2n1)(C(=O)NO)S(C)(=O)=O` [Example 62, (R)-(1-(4-((2-(4-(hydroxyamino)-3-methyl-3-(methylsulfonyl)-4-oxobutyl)-2H-indazol-5-yl)ethynyl)phenyl)cyclopropyl)methyl dihydrogen phosphate], the results for the MIC in experiment [1] (setting [6]), in experiment [1] (setting [7]) and in experiment [1] (setting [8]) were 1 µg/mL, above 16 µg/mL and above 16 µg/mL, respectively.

Turning to `C[C@@](CCn1cc2c(F)c(C#CC#C[C@H]3C[C@@H]3CO)ccc2n1)(C(=O)NO)S(C)(=O)=O` [Example 54, (R)-4-(4-fluoro-5-(((1S,2S)-2-(hydroxymethyl)cyclopropyl)buta-1,3-diyn-1-yl)-2H-indazol-2-yl)-N-hydroxy-2-methyl-2-(methylsulfonyl)butanamide], the MIC was at most 0.063 µg/mL in experiment [2] (setting [9]), at most 0.063 µg/mL in experiment [3] (setting [10]), 0.5 µg/mL (≈ 1.12 µM) in experiment [4] (setting [11]) and 4 µg/mL (≈ 8.94 µM) in experiment [5] (setting [12]).

On to `C[C@@](CCn1cc2cc(C#CC#C[C@@H]3C[C@H]3CN)ccc2n1)(C(=O)NO)S(C)(=O)=O` [Example 72, (R)-4-(5-(((1R,2R)-2-(aminomethyl)cyclopropyl)buta-1,3-diyn-1-yl)-2H-indazol-2-yl)-N-hydroxy-2-methyl-2-(methylsulfonyl)butanamide], for which the MIC in experiment [2] (setting [9]) is 4 µg/mL (≈ 9.33 µM); in experiment [3] (setting [10]), 2 µg/mL (≈ 4.67 µM); in experiment [4] (setting [11]), 2 µg/mL (≈ 4.67 µM); in experiment [5] (setting [12]), above 8 µg/mL.

Consider `C[C@@](CCn1cc2cc(C#CC#CC3CN(C(=O)CO)C3)ccc2n1)(C(=O)NO)S(C)(=O)=O` [Example 81, (R)—N-hydroxy-4-(5-((1-(2-hydroxyacetyl)azetidin-3-yl)buta-1,3-diyn-1-yl)-2H-indazol-2-yl)-2-methyl-2-(methylsulfonyl)butanamide], for which the MIC in experiment [2] (setting [9]) is 1 µg/mL (≈ 2.12 µM); in experiment [3] (setting [10]), 0.5 µg/mL (≈ 1.06 µM); in experiment [4] (setting [11]), 1 µg/mL (≈ 2.12 µM); in experiment [5] (setting [12]), 4 µg/mL (≈ 8.47 µM).

Regarding `C[C@@](CCn1cc2cc(C#CC#CC3(O)CSC3)ccc2n1)(C(=O)NO)S(C)(=O)=O` [Example 13, (R)—N-hydroxy-4-(5-((3-hydroxythietan-3-yl)buta-1,3-diyn-1-yl)-2H-indazol-2-yl)-2-methyl-2-(methylsulfonyl)butanamide], the MIC in experiment [2] (setting [9]) turned out to be 0.25 µg/mL (≈ 0.559 µM); in experiment [3] (setting [10]), 0.125 µg/mL (≈ 0.279 µM); in experiment [4] (setting [11]), 0.5 µg/mL (≈ 1.12 µM); in experiment [5] (setting [12]) it was 32 µg/mL (≈ 71.5 µM).

`C[C@@](CCn1cc2cc(C#CC#CC3(CO)CCC3)ccc2n1)(C(=O)NO)S(C)(=O)=O` [Example 73, (R)—N-hydroxy-4-(5-((1-(hydroxymethyl)cyclobutyl)buta-1,3-diyn-1-yl)-2H-indazol-2-yl)-2-methyl-2-(methylsulfonyl)butanamide]: the MIC turned out to be 0.25 µg/mL (≈ 0.564 µM) in experiment [2] (setting [9]), 0.125 µg/mL (≈ 0.282 µM) in experiment [3] (setting [10]), 1 µg/mL (≈ 2.25 µM) in experiment [4] (setting [11]) and 32 µg/mL (≈ 72.1 µM) in experiment [5] (setting [12]).

For the compound `C[C@@](CCn1cc2cc(-c3ccc(OC(F)(F)F)cc3)ccc2n1)(C(=O)NO)S(C)(=O)=O` [Example 8, (R)—N-hydroxy-2-methylsulfonyl-2-methyl-4-[5-(4-trifluoromethoxy-phenyl)-indazol-2-yl]-butanamide], the MIC in experiment [2] (setting [9]) is 0.5 µg/mL (≈ 1.06 µM); in experiment [3] (setting [10]) it was 0.25 µg/mL (≈ 0.53 µM); in experiment [4] (setting [11]), 4 µg/mL (≈ 8.48 µM); in experiment [5] (setting [12]) it was 0.125 µg/mL (≈ 0.265 µM).

Values taken from patent publication US9802901B2, “Antibacterial 2H-indazole derivatives” (priority 2013, dated 2017).
